Entries after “also recorded” stand apart in the source; their conditions may differ.
Assays:
[1] = system: HepG2 cells; assay: HepG2 hepatoma cell-based hepatotoxicity assay (MTS); conditions: 72 h of incubation
Description: (§1) To investigate the safety of compounds 2RS,4RS-39c, 50a, and 56a, a HepG2 hepatoma cell-based hepatotoxicity assay was used. Compounds were tested at six concentrations (0.1–100 μM).
(§2) Hepatotoxicity and cytotoxicity were estimated according to previously described protocols[62] using the hepatoma HepG2 (ATCC HB-8065) and human embryonic kidney HEK-293 (ATCC CRL1573) cell lines, respectively. In brief, cells were seeded in 96-well plates at a density of 0.7 × 10^4 and cultured at 37 °C in an atmosphere containing 5% CO2. Next, the compounds were added and investigated in quadruplicate at concentrations ranging from 0.1 to 100 μM for 72 h. The antiproliferative drug DX was used as the reference. The CellTiter 96 AQueous nonradioactive cell proliferation assay (MTS) purchased from Promega (Madison, WI, USA) was used for the determination of cell viability. The absorbance at 492 nm was measured using an EnSpire microplate reader (PerkinElmer, Waltham, MA, USA).

[2] = system: paclitaxel-treated mice; assay: paclitaxel-induced peripheral neuropathy, tactile allodynia (von Frey test); format: in vivo, mouse
Description: Before the in vivo tests, the test compounds were suspended in 1% Tween 80 (Baxter, Poland). The compounds were then administered intraperitoneally. […] The test compounds were administered only once daily on days 1 and 7 of oxaliplatin- or paclitaxel-induced neuropathy. In STZ-treated mice, test compounds were administered 21 days after STZ injection. Control mice used in oxaliplatin and paclitaxel NP models were injected with an appropriate amount of vehicle (0.9% saline). Oxaliplatin was purchased from Activate Scientific GmbH (Germany). Paclitaxel and STZ were purchased from Sigma-Aldrich (Poland).
Doses of both paclitaxel and STZ used for the induction of neuropathy were selected based on our previous research.[66],[67] To induce neuropathy, paclitaxel was used at a dose of 18 mg/kg. It was prepared by dissolving in ethanol (100% (v/v); Polskie Odczynniki Chemiczne, Gliwice, Poland) at 10% of the final desired volume and vortexed for 2 min. An equal volume of Cremophor EL (10% of the final volume) was then added, and the mixture was vortexed for the next 10 min. Prior to injection, ice-cold physiological saline (80% of the final volume) was added to make up a final volume and the solution was maintained on ice during dosing.[66] To induce type I diabetes, mice were intraperitoneally injected with STZ (a single injection of STZ, 200 mg/kg) dissolved in 0.1 N citrate buffer. Age-matched control mice received an equal volume of citrate buffer. Blood glucose level was measured 1 day before (referred to as “day 0”) and repeatedly 1, 2, and 3 weeks after STZ injection using a blood glucose monitoring system (Accu-Chek Active, Roche, France). Blood samples for measurement of glucose concentration were obtained from the tail vein of the mice. The animals were considered as diabetic when their blood glucose concentration exceeded 300 mg/dL,[68] and only these mice (diabetic mice) were used in subsequent pain tests.[67]
The ability of the test compounds to attenuate tactile allodynia caused by oxaliplatin, paclitaxel, and STZ was assessed using the von Frey test. For this purpose, 3 h after oxaliplatin or paclitaxel and 21 days after STZ injection, the predrug paw withdrawal threshold was measured for each mouse. Then, the test compounds were administered, and 1 h later, the postdrug paw withdrawal threshold was collected for each animal. This part of the experiment aimed to establish the effect of treatment on early phase (acute) pain hypersensitivity induced by cytotoxic drugs. Additionally, in the oxaliplatin model and the paclitaxel model, to assess the effect of test compounds on late phase tactile allodynia, 7 days later, measurements of the predrug and postdrug paw withdrawal thresholds were made in a similar manner to the measurements performed during early phase neuropathy. At this stage of the experiment, there was no additional oxaliplatin/paclitaxel administration.
An electronic von Frey unit (Bioseb, France) was used to assess the mechanical nociceptive threshold (tactile allodynia) in mice. This device has a single flexible filament that applies increasing force (from 0 to 10 g) against the plantar surface of the hind paw of each mouse. In the von Frey test, the paw withdrawal response of the animals automatically turns off the stimulus, and the mechanical pressure that evokes this response is recorded. On the day of the experiment, the mice were placed individually in test compartments with a wire mesh bottom and left there for 1 h of habituation. Subsequently, to obtain baseline values, each mouse was tested 3 times alternately in each hind paw. Then, the test compounds were administered, and 1 h later, 3 additional measurements were taken and averaged to obtain the mean postdrug values for each mouse.[69]

[3] = HepG2 hepatoma cell-based hepatotoxicity assay (MTS); conditions: human, HepG2 hepatoma cells; 25 μM, 72 h, control 1% DMSO in culture media; read-out: HepG2 cell viability compared to the control
Description: as §1, §2

[4] = day 7 after paclitaxel injection, 30 mg/kg i.p., 30 mg/kg
[5] = day 7 after paclitaxel injection, lower dose (10 mg/kg) i.p.
[6] = day of paclitaxel administration, 10 and 30 mg/kg i.p.

Cc1ccc(CNC(=O)[C@@H](C[C@@H](C)O)N(C)CCC=C2c3ccccc3CCc3ccccc32)cc1 (relative stereo) [Compound 2RS,4RS-39c, 2-((3-(10,11-Dihydro-5H-dibenzo[a,d][7]annulen-5-ylidene)propyl)(methyl)amino)-4-hydroxy-N-(4-methylbenzyl)pentanamide]
concentration with statistically significant (p < 0.0001) decrease in HepG2 cell viability ([1]; tested 0.1–100 μM): 25 µM

CN(CCON=C(c1ccccc1)c1ccccc1)C(CCN)C(=O)NCc1ccccc1Cl (stereo not drawn) [Compound 50a, 4-Amino-N-[(2-chlorophenyl)methyl]-2-[(2-{[(diphenylmethylidene)amino]oxy}ethyl)(methyl)amino]butanamide]
effect on mechanical nociceptive threshold, von Frey test [2, 4]: elevated mechanical nociceptive threshold; also recorded: able to reduce tactile allodynia | effect on mechanical nociceptive threshold, von Frey test [2, 5]: not effective | effect on mechanical nociceptive threshold, von Frey test [2, 6]: neither 50a nor 56a at doses 10 and 30 mg/kg was able to elevate the mechanical nociceptive threshold

CN(CCC=C1c2ccccc2CCc2ccccc21)C(CO)C(=O)NCc1ccccc1 (stereo not drawn) [Compound 56a, N-Benzyl-2-((3-(10,11-dihydro-5H-dibenzo[a,d][7]annulen-5-ylidene)propyl)(methyl)amino)-3-hydroxypropanamide]
effect on mechanical nociceptive threshold, von Frey test [2, 4]: elevated mechanical nociceptive threshold; also recorded: able to reduce tactile allodynia | effect on mechanical nociceptive threshold, von Frey test [2, 5]: not effective | effect on mechanical nociceptive threshold, von Frey test [2, 6]: neither 50a nor 56a at doses 10 and 30 mg/kg was able to elevate the mechanical nociceptive threshold | viability at 72 h, 25 µM [3]: 100% | hepatotoxicity in HepG2 cells ([1]; concentrations up to 25 μM): did not induce significant hepatotoxicity

— publication PMC8397297 (ACS Chemical Neuroscience, 2021)
